Assay results as given in PubChem BioAssay (NCI).
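Method: 48-hour compound exposure of cells in 96-well plates, five concentrations, linear interpolation of endpoints. At the GI50, growth is halved. TGI denotes the concentration required for complete inhibition of growth.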

Tests used:
Experiment in all cases: NCI anticancer screen, dose series, 48 h
786-0 renal = test system: 786-0 renal
A498 renal = test system: A498 renal
ACHN renal = test system: ACHN renal
BT-549 breast = test system: BT-549 breast
CAKI-1 renal = test system: CAKI-1 renal
CCRF-CEM leukemia = test system: CCRF-CEM leukemia
COLO 205 colon = test system: COLO 205 colon
DU-145 prostate = test system: DU-145 prostate
EKVX NSCLC = test system: EKVX NSCLC
HCC-2998 colon = test system: HCC-2998 colon
HCT-116 colon = test system: HCT-116 colon
HCT-15 colon = test system: HCT-15 colon
HL-60(TB) leukemia = test system: HL-60(TB) leukemia
HOP-62 NSCLC = test system: HOP-62 NSCLC
HOP-92 NSCLC = test system: HOP-92 NSCLC
HS 578T breast = test system: HS 578T breast
HT29 colon = test system: HT29 colon
IGROV1 ovarian = test system: IGROV1 ovarian
K-562 leukemia = test system: K-562 leukemia
KM12 colon = test system: KM12 colon
LOX IMVI melanoma = test system: LOX IMVI melanoma
M14 melanoma = test system: M14 melanoma
MALME-3M melanoma = test system: MALME-3M melanoma
MCF7 breast = test system: MCF7 breast
MDA-MB-231 breast = test system: MDA-MB-231 breast
MDA-MB-435 = test system: MDA-MB-435
MDA-N = test system: MDA-N
MOLT-4 leukemia = test system: MOLT-4 leukemia
NCI-H460 lung = test system: NCI-H460 lung
NCI-H522 lung = test system: NCI-H522 lung
NCI/ADR-RES ovarian = test system: NCI/ADR-RES ovarian
OVCAR-3 ovarian = test system: OVCAR-3 ovarian
OVCAR-4 ovarian = test system: OVCAR-4 ovarian
OVCAR-5 ovarian = test system: OVCAR-5 ovarian
OVCAR-8 ovarian = test system: OVCAR-8 ovarian
PC-3 prostate = test system: PC-3 prostate
RPMI-8226 leukemia = test system: RPMI-8226 leukemia
RXF 393 renal = test system: RXF 393 renal
SF-268 CNS = test system: SF-268 CNS
SF-539 CNS = test system: SF-539 CNS
SK-MEL-28 melanoma = test system: SK-MEL-28 melanoma
SK-MEL-5 melanoma = test system: SK-MEL-5 melanoma
SK-OV-3 ovarian = test system: SK-OV-3 ovarian
SN12C renal = test system: SN12C renal
SNB-19 CNS = test system: SNB-19 CNS
SNB-75 CNS = test system: SNB-75 CNS
SW-620 colon = test system: SW-620 colon
TK-10 renal = test system: TK-10 renal
U251 CNS = test system: U251 CNS
UACC-257 melanoma = test system: UACC-257 melanoma
UACC-62 melanoma = test system: UACC-62 melanoma
UO-31 renal = test system: UO-31 renal
SF-295 CNS = test system: SF-295 CNS
SK-MEL-2 melanoma = test system: SK-MEL-2 melanoma
A549 NSCLC = test system: A549 NSCLC
NCI-H226 lung = test system: NCI-H226 lung
NCI-H23 lung = test system: NCI-H23 lung
SR leukemia = test system: SR leukemia
T-47D breast = test system: T-47D breast

## O=C1C=C(c2ccccc2)O/C1=C/C(=O)c1ccc(Cl)cc1
786-0 renal
  TGI: 29.9 µM
A498 renal
  TGI: 75.4 µM
ACHN renal
  TGI: 30.5 µM
BT-549 breast
  TGI: 30.1 µM
CAKI-1 renal
  TGI: 27.6 µM
CCRF-CEM leukemia
  TGI: > 100 µM
COLO 205 colon
  TGI: 30.1 µM
DU-145 prostate
  TGI: > 100 µM
EKVX NSCLC
  TGI: > 100 µM
HCC-2998 colon
  TGI: 32.2 µM
HCT-116 colon
  TGI: 30.6 µM
HCT-15 colon
  TGI: 39.5 µM
HL-60(TB) leukemia
  TGI: 5.38 µM
HOP-62 NSCLC
  TGI: 85.3 µM
HOP-92 NSCLC
  TGI: 44.9 µM
HS 578T breast
  TGI: 55.5 µM
HT29 colon
  TGI: 36.5 µM
IGROV1 ovarian
  TGI: 35.9 µM
K-562 leukemia
  TGI: 33.7 µM
KM12 colon
  TGI: 36.7 µM
LOX IMVI melanoma
  TGI: 26.1 µM
M14 melanoma
  TGI: 40.3 µM
MALME-3M melanoma
  TGI: 36 µM
MCF7 breast
  TGI: 30.1 µM
MDA-MB-231 breast
  TGI: 31.2 µM
MDA-MB-435
  TGI: 28.5 µM
MDA-N
  TGI: 30.2 µM
MOLT-4 leukemia
  TGI: > 100 µM
NCI-H460 lung
  TGI: 41.5 µM
NCI-H522 lung
  TGI: 27.7 µM
NCI/ADR-RES ovarian
  TGI: 50 µM
OVCAR-3 ovarian
  TGI: 31.9 µM
OVCAR-4 ovarian
  TGI: 32.9 µM
OVCAR-5 ovarian
  TGI: 43.3 µM
OVCAR-8 ovarian
  TGI: 74.8 µM
PC-3 prostate
  TGI: 27.3 µM
RPMI-8226 leukemia
  TGI: 25.9 µM
RXF 393 renal
  TGI: 34.7 µM
SF-268 CNS
  TGI: 54.6 µM
SF-539 CNS
  TGI: 43.4 µM
SK-MEL-28 melanoma
  TGI: 32.9 µM
SK-MEL-5 melanoma
  TGI: 44.2 µM
SK-OV-3 ovarian
  TGI: > 100 µM
SN12C renal
  TGI: 29.9 µM
SNB-19 CNS
  TGI: > 100 µM
SNB-75 CNS
  TGI: 23.6 µM
SW-620 colon
  TGI: 27.1 µM
TK-10 renal
  TGI: 35.3 µM
U251 CNS
  TGI: 29.1 µM
UACC-257 melanoma
  TGI: 35.6 µM
UACC-62 melanoma
  TGI: 28.5 µM
UO-31 renal
  TGI: 38.9 µM

## CN1C(=O)C2(Cc3cn(C45CC67SSC(CO)(C(=O)N6C4Nc4ccccc45)N(C)C7=O)c4ccccc34)SSC1(CO)C(=O)N2C (stereo not given)
786-0 renal
  TGI: 0.0283 µM
ACHN renal
  TGI: 0.0776 µM
CCRF-CEM leukemia
  TGI: > 100 µM
DU-145 prostate
  TGI: 0.173 µM
EKVX NSCLC
  TGI: 0.166 µM
HCC-2998 colon
  TGI: 0.136 µM
HCT-116 colon
  TGI: 0.115 µM
HL-60(TB) leukemia
  TGI: > 100 µM
HOP-62 NSCLC
  TGI: 0.277 µM
HOP-92 NSCLC
  TGI: 0.771 µM
HT29 colon
  TGI: 0.0164 µM
IGROV1 ovarian
  TGI: 0.107 µM
K-562 leukemia
  TGI: > 100 µM
KM12 colon
  TGI: 0.577 µM
M14 melanoma
  TGI: 0.0298 µM
MCF7 breast
  TGI: 0.259 µM
MDA-MB-231 breast
  TGI: 0.0494 µM
MDA-N
  TGI: 0.0661 µM
MOLT-4 leukemia
  TGI: 1.08 µM
NCI-H460 lung
  TGI: 0.778 µM
NCI-H522 lung
  TGI: 0.0137 µM
OVCAR-3 ovarian
  TGI: 0.215 µM
OVCAR-4 ovarian
  TGI: 0.0234 µM
OVCAR-5 ovarian
  TGI: 0.289 µM
OVCAR-8 ovarian
  TGI: 0.202 µM
PC-3 prostate
  TGI: 0.214 µM
RPMI-8226 leukemia
  TGI: > 100 µM
SF-268 CNS
  TGI: 0.265 µM
SF-295 CNS
  TGI: 1.34 µM
SF-539 CNS
  TGI: 0.0738 µM
SK-MEL-2 melanoma
  TGI: 0.288 µM
SK-MEL-28 melanoma
  TGI: 0.505 µM
SK-OV-3 ovarian
  TGI: 1.56 µM
SN12C renal
  TGI: 0.0696 µM
SNB-75 CNS
  TGI: 0.345 µM
SW-620 colon
  TGI: > 100 µM
TK-10 renal
  TGI: 0.103 µM
UACC-257 melanoma
  TGI: 1.13 µM
UACC-62 melanoma
  TGI: 0.324 µM
UO-31 renal
  TGI: 0.179 µM

## O=C(N/N=C/c1ccccc1O)c1ccccc1Nc1ccnc(C(F)(F)F)c1
786-0 renal
  GI50: 0.46 µM
  TGI: 9.26 µM
A498 renal
  GI50: 18.1 µM
  TGI: > 91.6 µM
A549 NSCLC
  GI50: 0.505 µM
  TGI: > 30.9 µM
ACHN renal
  GI50: 0.342 µM
  TGI: > 63.5 µM
BT-549 breast
  GI50: 0.527 µM
  TGI: 59 µM
CAKI-1 renal
  GI50: 0.337 µM
  TGI: 10.3 µM
CCRF-CEM leukemia
  GI50: 0.123 µM
COLO 205 colon
  GI50: 0.3 µM
  TGI: 41.3 µM
DU-145 prostate
  GI50: 0.478 µM
  TGI: > 48.7 µM
EKVX NSCLC
  GI50: 0.302 µM
  TGI: 67.2 µM
HCC-2998 colon
  GI50: 0.388 µM
  TGI: 24.7 µM
HCT-116 colon
  GI50: 0.414 µM
  TGI: 20.9 µM
HCT-15 colon
  GI50: 0.177 µM
  TGI: > 100 µM
HL-60(TB) leukemia
  GI50: 0.293 µM
  TGI: 1.69 µM
HOP-62 NSCLC
  GI50: 0.41 µM
  TGI: 13.4 µM
HOP-92 NSCLC
  GI50: 0.388 µM
  TGI: 10.9 µM
HS 578T breast
  GI50: 12.9 µM
  TGI: > 100 µM
HT29 colon
  GI50: 3.32 µM
  TGI: 53.5 µM
IGROV1 ovarian
  GI50: 0.0154 µM
  TGI: 0.0883 µM
K-562 leukemia
  GI50: 0.53 µM
  TGI: > 100 µM
KM12 colon
  GI50: 0.484 µM
  TGI: 32.7 µM
LOX IMVI melanoma
  GI50: 0.279 µM
  TGI: > 54.7 µM
M14 melanoma
  GI50: 0.497 µM
  TGI: 3.76 µM
MALME-3M melanoma
  GI50: 0.858 µM
  TGI: 19.2 µM
MCF7 breast
  GI50: 0.35 µM
  TGI: 29.2 µM
MDA-MB-231 breast
  GI50: 0.796 µM
  TGI: > 95.4 µM
MDA-MB-435
  GI50: 1.37 µM
  TGI: > 100 µM
MOLT-4 leukemia
  GI50: 0.28 µM
  TGI: > 32.3 µM
NCI-H226 lung
  GI50: 1.08 µM
  TGI: 12.1 µM
NCI-H23 lung
  GI50: 1.33 µM
  TGI: > 44.9 µM
NCI-H460 lung
  GI50: 0.255 µM
  TGI: 11.2 µM
NCI-H522 lung
  GI50: 5.74 µM
  TGI: > 58.9 µM
NCI/ADR-RES ovarian
  GI50: 0.433 µM
  TGI: 30.1 µM
OVCAR-3 ovarian
  GI50: 0.45 µM
  TGI: 22.6 µM
OVCAR-4 ovarian
  GI50: 0.271 µM
  TGI: > 100 µM
OVCAR-5 ovarian
  GI50: 4.34 µM
  TGI: > 92.3 µM
OVCAR-8 ovarian
  GI50: 0.711 µM
  TGI: > 37.4 µM
PC-3 prostate
  GI50: 0.295 µM
  TGI: 10.1 µM
RPMI-8226 leukemia
  GI50: 0.189 µM
  TGI: 1.64 µM
RXF 393 renal
  GI50: 1.05 µM
  TGI: > 40.3 µM
SF-268 CNS
  GI50: 0.448 µM
  TGI: > 89.3 µM
SF-295 CNS
  GI50: 0.573 µM
  TGI: 27.6 µM
SF-539 CNS
  GI50: 0.545 µM
  TGI: 11.3 µM
SK-MEL-2 melanoma
  GI50: 3.61 µM
  TGI: > 60.5 µM
SK-MEL-28 melanoma
  GI50: 1.71 µM
  TGI: > 88.1 µM
SK-MEL-5 melanoma
  GI50: 0.432 µM
  TGI: 5.53 µM
SK-OV-3 ovarian
  GI50: 0.649 µM
  TGI: 38 µM
SN12C renal
  GI50: 0.974 µM
  TGI: 72.6 µM
SNB-19 CNS
  GI50: 1.77 µM
  TGI: > 100 µM
SNB-75 CNS
  GI50: 2.25 µM
  TGI: 52.2 µM
SR leukemia
  GI50: 0.197 µM
SW-620 colon
  GI50: 2.04 µM
  TGI: > 100 µM
T-47D breast
  GI50: 1.07 µM
  TGI: > 78.4 µM
TK-10 renal
  GI50: 0.467 µM
  TGI: > 100 µM
U251 CNS
  GI50: 0.442 µM
  TGI: > 100 µM
UACC-257 melanoma
  GI50: 0.396 µM
UACC-62 melanoma
  GI50: 0.365 µM
  TGI: 7 µM
UO-31 renal
  GI50: 0.291 µM
  TGI: 3.12 µM
